# Measurements as given in ChEMBL document CHEMBL1201862, “PubChem BioAssay data set” (2004).
# Calls of active or inactive are those of the source.
# Tests used:
# [1] = target: Envelope glycoprotein gp160 (Human immunodeficiency virus 1, UniProt Q6QLK5); experiment: cell-free HIV fusion peptide-binding blockers – biochemical, uHTS, fluorescence dequenching, […] (AID 1986)
# [2] = target: Induced myeloid leukemia cell differentiation protein Mcl-1 (Homo sapiens, UniProt Q07820); assay type: functional
# Chain of Induced myeloid leukemia cell differentiation protein Mcl-1 (Q07820 whole entry): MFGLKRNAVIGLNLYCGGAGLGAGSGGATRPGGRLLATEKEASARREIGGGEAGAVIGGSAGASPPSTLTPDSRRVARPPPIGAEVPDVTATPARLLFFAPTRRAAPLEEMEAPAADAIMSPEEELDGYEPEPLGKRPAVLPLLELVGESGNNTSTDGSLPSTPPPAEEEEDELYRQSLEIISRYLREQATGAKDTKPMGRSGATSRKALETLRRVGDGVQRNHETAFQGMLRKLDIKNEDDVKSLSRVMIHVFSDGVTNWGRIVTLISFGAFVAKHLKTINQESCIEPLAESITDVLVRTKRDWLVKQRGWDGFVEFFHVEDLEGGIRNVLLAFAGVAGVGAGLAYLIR
# [3] = viability loss in THP-1 monocytes – THP-1 cells, cytotoxicity control for Vif-APOBEC3G degradation inhibitor project, dose response (AID 1117359); assay type: functional; conditions: THP-1
# [4] = non-PhoP GFP expression and growth suppression – purified and synthesized compounds, set 2, counter-screen for PhoP regulon inhibitor project, dose response (AID 2834); assay type: functional
# [5] = reduction of Shn3 3'UTR-driven luciferase in osteoblasts – cell-based, Clone20 osteoblasts, firefly luciferase, cherry-picked, dose response (AID 624132); assay type: functional;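 also: firefly luciferase luminescence from reporter carrying the Shn3 3'UTR in osteoblasts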
# [6] = loss of viability in HepG2 cells – cell-based, CellTiter-Glo, cherry-picked, cytotoxicity control for Shn3 inhibitor project, dose response (AID 624134); assay type: functional
# [7] = non-specific 3'UTR reporter inhibition in Clone20-Shn3RL – cell-based, Renilla luciferase, cherry-picked, counter-screen for Shn3 inhibitor project, dose response (AID 624133); assay type: functional
# [8] = target: Disintegrin and metalloproteinase domain-containing protein 17 (Homo sapiens, UniProt P78536); experiment: exosite inhibitors of ADAM17, dose response, biochemical (AID 743260)
# Chain of Disintegrin and metalloproteinase domain-containing protein 17 (P78536 whole entry, the tested form may be a part): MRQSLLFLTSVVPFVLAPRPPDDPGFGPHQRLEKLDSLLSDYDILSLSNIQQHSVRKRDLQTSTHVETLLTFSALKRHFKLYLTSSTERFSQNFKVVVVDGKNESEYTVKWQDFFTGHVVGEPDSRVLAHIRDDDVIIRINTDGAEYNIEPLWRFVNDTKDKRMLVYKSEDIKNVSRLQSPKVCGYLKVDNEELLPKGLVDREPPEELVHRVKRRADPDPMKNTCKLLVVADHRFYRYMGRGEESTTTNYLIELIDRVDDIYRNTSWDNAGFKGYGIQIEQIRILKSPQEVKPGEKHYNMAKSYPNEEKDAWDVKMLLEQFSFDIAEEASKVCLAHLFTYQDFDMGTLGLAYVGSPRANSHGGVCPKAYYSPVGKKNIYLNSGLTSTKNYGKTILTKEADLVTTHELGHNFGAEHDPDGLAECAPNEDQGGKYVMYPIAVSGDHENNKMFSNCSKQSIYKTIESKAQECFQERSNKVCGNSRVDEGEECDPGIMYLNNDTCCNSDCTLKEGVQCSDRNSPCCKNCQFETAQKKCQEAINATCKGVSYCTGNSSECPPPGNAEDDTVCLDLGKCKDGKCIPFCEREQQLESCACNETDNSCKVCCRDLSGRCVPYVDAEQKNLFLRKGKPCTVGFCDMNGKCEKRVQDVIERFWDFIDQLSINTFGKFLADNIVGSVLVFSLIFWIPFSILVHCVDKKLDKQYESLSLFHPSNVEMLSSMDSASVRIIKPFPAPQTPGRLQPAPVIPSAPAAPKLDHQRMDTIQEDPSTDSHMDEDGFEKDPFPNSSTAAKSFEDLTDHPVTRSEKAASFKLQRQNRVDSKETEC
# [9] = inhibition of ADAM10 peptide cleavage – biochemical, FRET peptide substrate, recombinant human ADAM10, selectivity assay for ADAM17 exosite inhibitor project, dose response (AID 743259);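 also: ADAM10 enzyme cleaving a FRET peptide substrate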
# HEK293 = experiment: Fluorescence-based counterscreen for potentiators or agonists of NPY-Y2: cell-based high-throughput dose response assay to identify inhibitors of cyclic nucleotide gated ion channel (CNGC) activity. In this assay, the parental HEK293 cell line transfected with a cyclic-nucleotide gated ion channel (CNGC)-based cAMP sensor is used to measure inhibition of isoproterenol-induced CNGC activity by test compound.; assay type: functional; conditions: Homo sapiens;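 also: stimulus is 1 µM isoproterenol at EC100 plus PDE inhibitor Ro 20-1724 at 25 µM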
# [10] = target: T1, Neuropeptide Y receptor type 2 (Homo sapiens, UniProt P49146); experiment: Fluorescence-based cell-based high-throughput dose response assay for agonists of NPY-Y2. [Related pubchem assays: 1703 (Screening assay (CNGC inhibitors).), 1359 (Screening assay (NPY-Y2 potentiators or agonists).), 1304 (Screening assay (NPY-Y1 potentiators or agonists).), 1710 (Screening assay (NPY-Y2 agonists).), 1791 (Summary AID.)]; assay type: functional
# T1 sequence (P49146 whole entry): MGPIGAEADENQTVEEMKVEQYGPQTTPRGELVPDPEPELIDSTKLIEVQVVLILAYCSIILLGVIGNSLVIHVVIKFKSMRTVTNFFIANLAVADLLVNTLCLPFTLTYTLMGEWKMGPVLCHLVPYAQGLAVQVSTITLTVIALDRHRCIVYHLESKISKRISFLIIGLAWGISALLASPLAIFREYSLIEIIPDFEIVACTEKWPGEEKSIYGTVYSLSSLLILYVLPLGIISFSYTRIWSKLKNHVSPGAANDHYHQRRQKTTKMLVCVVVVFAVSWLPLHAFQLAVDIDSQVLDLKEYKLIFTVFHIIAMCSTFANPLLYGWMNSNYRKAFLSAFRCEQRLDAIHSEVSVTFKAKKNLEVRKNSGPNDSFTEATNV
# [11] = target: T2, Neuropeptide Y receptor type 1 (Homo sapiens, UniProt P25929); experiment: Fluorescence-based counterscreen for agonists of NPY-Y2: cell-based high-throughput dose response assay for agonists of NPY-Y1.; assay type: functional
# T2 sequence (P25929 whole entry): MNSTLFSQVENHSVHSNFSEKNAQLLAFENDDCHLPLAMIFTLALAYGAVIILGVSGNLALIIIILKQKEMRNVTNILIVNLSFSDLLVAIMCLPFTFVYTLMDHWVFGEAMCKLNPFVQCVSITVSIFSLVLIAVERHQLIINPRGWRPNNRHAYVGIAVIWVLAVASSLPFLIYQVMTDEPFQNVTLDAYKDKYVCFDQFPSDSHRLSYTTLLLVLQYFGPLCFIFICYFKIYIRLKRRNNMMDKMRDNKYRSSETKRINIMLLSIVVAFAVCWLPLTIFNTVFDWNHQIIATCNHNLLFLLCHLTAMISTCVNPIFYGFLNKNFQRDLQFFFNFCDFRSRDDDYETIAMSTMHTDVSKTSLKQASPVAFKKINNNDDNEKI
# [12] = target: Cyclin-dependent kinase 5/CDK5 activator 1 (Homo sapiens, UniProt Q00535); experiment: blockade of human CDK5 activity – biochemical, cherry-picked samples, set 2, dose response (AID 504545)
# Chain of Cyclin-dependent kinase 5/CDK5 activator 1 (Q00535 whole entry): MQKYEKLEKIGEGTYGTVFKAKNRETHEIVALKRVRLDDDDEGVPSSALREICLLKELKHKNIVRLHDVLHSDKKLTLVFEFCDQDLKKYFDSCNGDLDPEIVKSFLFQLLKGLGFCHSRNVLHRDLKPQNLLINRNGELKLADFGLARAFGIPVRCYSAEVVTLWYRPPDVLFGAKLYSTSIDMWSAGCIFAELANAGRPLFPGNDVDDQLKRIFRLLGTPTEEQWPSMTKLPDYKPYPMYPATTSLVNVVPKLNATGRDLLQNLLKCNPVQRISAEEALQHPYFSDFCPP
# Chain of Cyclin-dependent kinase 5/CDK5 activator 1 (Q15078 whole entry, further chain): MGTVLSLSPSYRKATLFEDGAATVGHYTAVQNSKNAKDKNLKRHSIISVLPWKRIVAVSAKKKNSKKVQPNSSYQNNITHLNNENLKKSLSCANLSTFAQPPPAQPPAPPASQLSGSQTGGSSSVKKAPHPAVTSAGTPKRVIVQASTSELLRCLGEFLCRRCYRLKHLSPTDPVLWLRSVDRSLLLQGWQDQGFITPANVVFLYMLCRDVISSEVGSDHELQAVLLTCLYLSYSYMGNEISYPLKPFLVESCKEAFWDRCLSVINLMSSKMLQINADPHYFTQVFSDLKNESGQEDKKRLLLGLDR
# Galanin receptor type 3 = target: T3, Galanin receptor type 3 (Homo sapiens, UniProt O60755); experiment: Fluorescence-based cell-based primary high throughput dose response assay to identify antagonists of the Galanin Receptor 3 (GalR3).; assay type: functional
# T3 sequence (O60755 whole entry): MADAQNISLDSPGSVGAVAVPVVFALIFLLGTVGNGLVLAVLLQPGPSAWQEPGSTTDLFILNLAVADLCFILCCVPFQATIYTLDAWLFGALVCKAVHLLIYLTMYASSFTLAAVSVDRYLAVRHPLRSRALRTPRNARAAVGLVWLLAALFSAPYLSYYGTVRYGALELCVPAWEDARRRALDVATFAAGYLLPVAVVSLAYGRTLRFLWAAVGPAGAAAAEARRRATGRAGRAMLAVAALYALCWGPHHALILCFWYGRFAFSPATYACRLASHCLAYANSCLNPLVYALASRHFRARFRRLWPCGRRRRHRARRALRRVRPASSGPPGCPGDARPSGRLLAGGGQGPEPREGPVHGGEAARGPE
# cells = assay type: functional, cell-based; conditions: HEK-CNG
# Chain of Envelope glycoprotein gp160 (Q6QLK5 whole entry, the tested form may be a part): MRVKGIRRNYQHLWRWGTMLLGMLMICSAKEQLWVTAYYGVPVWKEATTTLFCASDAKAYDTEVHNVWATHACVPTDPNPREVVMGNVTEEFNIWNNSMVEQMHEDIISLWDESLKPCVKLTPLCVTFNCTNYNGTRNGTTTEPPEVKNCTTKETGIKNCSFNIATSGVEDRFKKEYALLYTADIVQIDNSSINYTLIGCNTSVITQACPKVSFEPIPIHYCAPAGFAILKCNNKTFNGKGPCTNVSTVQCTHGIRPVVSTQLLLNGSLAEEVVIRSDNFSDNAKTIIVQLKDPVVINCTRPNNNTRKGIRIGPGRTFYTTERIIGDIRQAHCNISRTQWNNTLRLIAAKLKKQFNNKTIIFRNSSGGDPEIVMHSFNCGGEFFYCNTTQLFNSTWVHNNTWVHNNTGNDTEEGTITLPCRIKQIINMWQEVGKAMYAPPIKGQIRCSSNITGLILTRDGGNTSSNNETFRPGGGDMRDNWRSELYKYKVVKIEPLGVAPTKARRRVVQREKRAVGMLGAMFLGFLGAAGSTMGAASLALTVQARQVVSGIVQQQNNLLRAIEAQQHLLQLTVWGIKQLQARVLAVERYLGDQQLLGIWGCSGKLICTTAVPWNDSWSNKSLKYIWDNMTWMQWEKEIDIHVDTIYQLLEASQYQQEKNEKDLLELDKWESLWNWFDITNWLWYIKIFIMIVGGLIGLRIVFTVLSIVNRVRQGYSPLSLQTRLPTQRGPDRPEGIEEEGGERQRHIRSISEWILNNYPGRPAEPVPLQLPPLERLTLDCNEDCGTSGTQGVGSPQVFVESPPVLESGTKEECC
smiles,measurement,setting,value
O=C(O)C[C@@H]1C(=O)O[C@@H]2C(COC(=O)c3cc(O)c(O)c(O)c3)O[C@@H](OC(=O)c3cc(O)c(O)c(O)c3)[C@@H](OC(=O)c3cc(O)c(O)c4c3[C@H]1[C@H](O)C(=O)O4)[C@H]2OC(=O)c1cc(O)c(O)c(O)c1 (stereo not given in full),IC50,[1],11.2 µM (active)
same,IC50,[2],1.52 µM (active)
same,CC50,[3],> 40 µM (active)
S=C(NCc1ccc(Cl)cc1)Nc1ccncc1,IC50,[4],> 125 µM (active)
same,AC50,[5],1.5 µM (active)
same,AC50,[6],22.1 µM (active)
same,AC50,[7],> 70 µM (inactive)
same,IC50,[8],> 69.6 µM (inactive)
same,IC50,[9],> 69.6 µM (inactive)
CCCc1cc(-c2[nH]ncc2-c2ccc(C(=O)OCC)o2)c(O)cc1O,EC50,HEK293,> 35.4 µM (not active)
same,EC50,[10],> 35.4 µM (not active)
same,EC50,[11],18.5 µM (not active)
same,AC50,[12],10 µM (active)
same,IC50,Galanin receptor type 3,12.8 µM (inactive)
same,EC50,cells,> 29.9 µM (inactive)
